Test results: EPA's ToxRefDB 2

Key:
[1] = test system: rat; details: Subchronic oral toxicity in rodents, Fischer, Feed, dose end: 13 week, group: systemic
[2] = test system: rat; details: Carcinogenicity, fischer, Oral, Feed, dose end: 105 week, group: systemic
[3] = test system: dog; details: Chronic toxicity; beagle; Oral; Capsule; dose end: 12 month; group: systemic; systemic / clinical chemistry / urea nitrogen / urea + systemic / in life observation / clinical signs / altered breathing rate + systemic…
[4] = test system: mouse; details: Carcinogenicity, swiss albino, Oral, Feed, dose end: 18 month, group: systemic
[5] = test system: mouse; details: Carcinogenicity, cd1, Oral, Feed, dose end: 18 month, group: systemic
[6] = test system: mouse; details: Subchronic oral toxicity in rodents, b6c3f1, Feed, dose end: 45 day, group: systemic, systemic / in life observation / mortality / mortality
[7] = test system: rat; details: Carcinogenicity; fischer; Oral; Feed; dose end: 2 year; group: systemic; systemic / in life observation / body weight / body weight
[8] = test system: rat; details: Subchronic oral toxicity in rodents, fischer, Feed, dose end: 45 day, group: systemic
[9] = test system: mouse; details: Carcinogenicity; b6c3f1; Oral; Feed; dose end: 2 year; group: systemic; systemic / in life observation / body weight / body weight
[10] = test system: rat; details: Subchronic oral toxicity in rodents, fischer, Feed, dose end: 13 week, group: systemic
[11] = test system: mouse; details: Subchronic oral toxicity in rodents, b6c3f1, Feed, dose end: 13 week, group: systemic
[12] = test system: mouse; details: Carcinogenicity, b6c3f1, Oral, Feed, dose end: 2 year, group: systemic
[13] = test system: mouse; details: Multigenerational reproductive toxicity study, b6c3f1, Oral, Feed, dose end: 2 generation
[14] = test system: rat; details: Combined chronic toxicity/carcinogenicity, fischer, Oral, Feed, dose end: 2 year, group: systemic
[15] = test system: rat; details: Subchronic oral toxicity in rodents, other, Gavage/Intubation, dose end: 90 day, group: systemic
[16] = systemic / clinical chemistry / creatinine / creatinine + systemic / urinalysis / specific gravity/osmolality / specific gravity/osmolality…
[17] = systemic / in life observation / body weight / body weight gain + systemic / in life observation / body weight / body weight + systemic / …
[18] = systemic / pathology microscopic / kidney / hyperplasia + systemic / pathology microscopic / pancreas / hyperplasia
[19] = systemic / pathology microscopic / kidney / hyperplasia + systemic / pathology microscopic / pancreas / hyperplasia + systemic / pathology …
[20] = systemic / organ weight / kidney / absolute + systemic / organ weight / kidney / relative to body weight + systemic / organ weight / liver…
[21] = systemic / pathology microscopic / liver / adenoma + systemic / pathology microscopic / liver / adenoma/carcinoma combined + systemic / …
[22] = systemic / pathology microscopic / liver / adenoma/carcinoma combined + systemic / hematology / erythrocyte (rbc) count differential / …
[23] = systemic / in life observation / body weight / body weight
[24] = systemic / in life observation / body weight / body weight + systemic / in life observation / mortality / mortality
[25] = systemic / pathology microscopic / kidney / hyaline droplet
[26] = systemic / in life observation / body weight / body weight + systemic / in life observation / body weight / body weight gain
[27] = systemic / in life observation / body weight / body weight + systemic / pathology microscopic / lung / hyperplasia
[28] = systemic / pathology microscopic / lung / adenoma/carcinoma combined
[29] = group: offspring, systemic / in life observation / body weight / offspring (pup) weight
[30] = group: parental, systemic / in life observation / body weight / body weight + systemic / in life observation / food consumption / food consumption + systemic…
[31] = group: parental, systemic / in life observation / body weight / body weight + systemic / organ weight / kidney / relative to body weight + systemic / in life…
[32] = group: reproductive, reproductive / reproductive performance / reproductive performance other / NOS + reproductive / reproductive performance / estrous cycle / …
[33] = systemic / pathology microscopic / kidney / hyperplasia + systemic / pathology microscopic / kidney / pigmentation
[34] = systemic / pathology microscopic / kidney / hyperplasia + systemic / pathology microscopic / kidney / pigmentation + systemic / pathology …
[35] = systemic / clinical chemistry / 5' nucleotidase / 5' nucleotidase + systemic / clinical chemistry / protein / protein + systemic / in life …
[36] = systemic / clinical chemistry / 5' nucleotidase / 5' nucleotidase + systemic / organ weight / liver / relative to body weight + systemic / …

OCC(CO)(CCBr)CCBr [2,2-Bis(bromoethyl)-1,3-propanediol] was tested, and the LEL [1, 16] was 100 mg/kg/day, the NEL [1, 16] was < 100 mg/kg/day and the LOAEL [1, 17] was 400 mg/kg/day. The NOAEL [1, 17] was 200 mg/kg/day, the LOAEL [2, 18] was 100 mg/kg/day and the NOAEL [2, 18] was < 100 mg/kg/day. The LEL [2, 19] was 100 mg/kg/day and the NEL [2, 19] was < 100 mg/kg/day.

For N#Cc1cc(Br)c(O)c(Br)c1 [Bromoxynil], the LEL [3] was 1.5 mg/kg/day, the LOAEL [3] was 1.5 mg/kg/day and the NEL [3] was 0.3 mg/kg/day. The NOAEL [3] was 0.3 mg/kg/day, the LOAEL [4, 20] was > 13.3 mg/kg/day and the NOAEL [4, 20] was ≥ 13.3 mg/kg/day. It also gave an NEL ([4]; systemic / pathology microscopic / liver / adenoma + systemic / pathology microscopic / liver / carcinoma + systemic / organ weight / liver…) of 1.33 mg/kg/day, an LEL ([4]; systemic / pathology microscopic / liver / carcinoma + systemic / pathology microscopic / liver / hyperplasia) of 4 mg/kg/day and an LOAEL [5, 21] of 12 mg/kg/day. For the same compound, the NOAEL [5, 21] was 3.1 mg/kg/day, the LEL [5, 22] was 3.1 mg/kg/day and the NEL [5, 22] was < 3.1 mg/kg/day.

With Cc1ccc(S(=O)(=O)NC(=O)NN2CCCCCC2)cc1 [Tolazamide] the LEL [6] was 3750 mg/kg/day, the LOAEL [6] was > 7500 mg/kg/day and the NEL [6] was 1800 mg/kg/day. For the same compound, the NOAEL [6] was ≥ 7500 mg/kg/day, the LEL [7] was 250 mg/kg/day and the LOAEL [7] was > 500 mg/kg/day. For the same compound, the NEL [7] was < 250 mg/kg/day, the NOAEL [7] was ≥ 500 mg/kg/day and the LEL [8, 23] was 1000 mg/kg/day. The LOAEL [8, 23] was 1000 mg/kg/day, the NEL [8, 24] was 500 mg/kg/day and the NOAEL [8, 24] was 500 mg/kg/day. For the same compound, the LEL [9] was 750 mg/kg/day, the LOAEL [9] was 750 mg/kg/day and the NEL [9] was < 750 mg/kg/day. For the same compound, the NOAEL [9] was < 750 mg/kg/day.

O=C(O)c1ccc([N+](=O)[O-])cc1 [4-Nitrobenzoic acid] was tested, and the LOAEL ([10]; systemic / in life observation / body weight / body weight gain + systemic / organ weight / spleen / relative to body weight + systemic / …) was 310 mg/kg/day, the LEL [10, 25] was 40 mg/kg/day and the NEL [10, 25] was < 40 mg/kg/day. For the same compound, the NOAEL ([10]; systemic / pathology microscopic / kidney / hyaline droplet + systemic / in life observation / body weight / body weight gain + systemic / …) was 160 mg/kg/day, the LEL [11, 26] was 170 mg/kg/day and the LOAEL [11, 26] was 670 mg/kg/day. The NEL [11, 26] was < 170 mg/kg/day, the NOAEL ([11]; systemic / in life observation / body weight / body weight + systemic / in life observation / body weight / body weight gain + systemic / …) was 330 mg/kg/day and the LOAEL [12, 27] was > 675 mg/kg/day. The NOAEL [12, 27] was ≥ 675 mg/kg/day, the LEL [12, 28] was 170 mg/kg/day and the NEL [12, 28] was < 170 mg/kg/day. The LEL [13, 29] was 500 mg/kg/day, the LOAEL [13, 29] was > 2400 mg/kg/day and the NEL [13, 29] was < 500 mg/kg/day. The NOAEL [13, 29] was ≥ 2400 mg/kg/day, the LEL [13, 30] was 500 mg/kg/day and the NEL [13, 30] was < 500 mg/kg/day. The LOAEL [13, 31] was > 2400 mg/kg/day, the NOAEL [13, 31] was ≥ 2400 mg/kg/day and the LOAEL [13, 32] was > 2400 mg/kg/day. For the same compound, the NEL [13, 32] was 500 mg/kg/day, the NOAEL [13, 32] was ≥ 2400 mg/kg/day and the LEL ([13]; group: reproductive, reproductive / reproductive performance / reproductive performance other / NOS + reproductive / reproductive performance / gestational …) was 1100 mg/kg/day. For the same compound, the LEL [14, 33] was 50 mg/kg/day, the NEL [14, 33] was < 50 mg/kg/day and the LOAEL [14, 34] was 100 mg/kg/day. The NOAEL [14, 34] was 50 mg/kg/day.

With N#CC(Cl)Cl [Dichloroacetonitrile] the LOAEL [15, 35] was > 65 mg/kg/day, the NOAEL [15, 35] was ≥ 65 mg/kg/day and the LEL [15, 36] was 8 mg/kg/day. The NEL [15, 36] was < 8 mg/kg/day.
